In publication PMC5933782, “Molecular structures of cdc2-like kinases in complex with a new inhibitor chemotype” (PLoS ONE, 2018):

Legend:
Assay in all cases: NCI cancer cell line screening
Format in all cases: cell-based
NCI-H226 = conditions: Homo sapiens; NCI-H226, Non-Small Cell Lung Cancer
Experimental: (§1) Being the most promising compound in terms of CLK1 inhibitory potency and selectivity, KuWal151 (8c) was tested in the National Cancer Institute cancer cell line screening on 57 tumor cell lines of different tissue origin [45]. With only a few exceptions, KuWal151 inhibited the growth of most cell lines in submicromolar concentrations. In Table 2 the cancer cell line inhibition data is listed with the expression rates of SPF45 and CLK1 as indicated in the Expression Atlas database (https://www.ebi.ac.uk/gxa/home). Apparently the cell lines with high levels of CLK1 encoding RNA are inhibited over average. […] However, the available data are not sufficient to construe a clear relationship between the expression levels of the putative target CLK1 and sensitivity of the cell lines against 8c. The same holds true for SPF45, an important substrate of CLK1 involved in splicing which is found to be overexpressed in many cancer cell lines. […] The lack of a straight relationship between CLK1 and/or SPF45 expression levels on the one hand and sensitivity against the CLK1 inhibitor 8c on the other hand may have various reasons, e.g. different uptake rates of the inhibitor by the cells or alternative intracellular targets. For verification of the results from the NCI screening, which is based on the in situ fixation of cells followed by staining with the protein-binding dye sulforhodamin B [47, 48], 8c was also tested on two cell lines of the NCI panel (HT-29 and MDA-MB-231) in a crystal violet assay.

M14 = conditions: Homo sapiens; M14, Melanoma
Experimental: as §1

OVCAR-5 = conditions: Homo sapiens; OVCAR-5, Ovarian Cancer
Experimental: as §1

A498 = conditions: Homo sapiens; A498, Renal Cancer
Experimental: as §1

U251 = conditions: Homo sapiens, U-251; U251, CNS Cancer
Experimental: as §1

SF-539 = conditions: Homo sapiens; SF-539, CNS Cancer
Experimental: as §1

NCI/ADR-RES = conditions: Homo sapiens, Ovarian Cancer
Experimental: as §1

SW-620 = conditions: Homo sapiens; SW-620, Colon Cancer
Experimental: as §1

DU-145 = conditions: Homo sapiens; DU-145, Prostate Cancer
Experimental: as §1

HCT-116 = conditions: Homo sapiens; HCT-116, Colon Cancer
Experimental: as §1

T-47D = conditions: Homo sapiens, T47D, Breast Cancer
Experimental: as §1

BT-549 = conditions: Homo sapiens; BT-549, Breast Cancer
Experimental: as §1

COLO 205 = conditions: Homo sapiens; COLO 205, Colon Cancer
Experimental: as §1

HCT-15 = conditions: Homo sapiens; HCT-15, Colon Cancer
Experimental: as §1

HCC-2998 = conditions: Homo sapiens; HCC-2998, Colon Cancer
Experimental: as §1

HT29 = conditions: Homo sapiens, HT-29; HT29, Colon Cancer
Experimental: as §1

SR = conditions: Homo sapiens, Leukemia
Experimental: as §1

SNB-75 = conditions: Homo sapiens; SNB-75, CNS Cancer
Experimental: as §1

MCF7 = conditions: Homo sapiens; MCF7, Breast Cancer
Experimental: as §1

SF-268 = conditions: Homo sapiens; SF-268, CNS Cancer
Experimental: as §1

KM12 = conditions: Homo sapiens; KM12, Colon Cancer
Experimental: as §1

NCI-H460 = conditions: Homo sapiens; NCI-H460, Non-Small Cell Lung Cancer
Experimental: as §1

RPMI-8226 = conditions: Homo sapiens; RPMI-8226, Leukemia
Experimental: as §1

RXF 393 = conditions: Homo sapiens; RXF 393, Renal Cancer
Experimental: as §1

SK-MEL-2 = conditions: Homo sapiens; SK-MEL-2, Melanoma
Experimental: as §1

MDA-MB-468 = conditions: Homo sapiens; MDA-MB-468, Breast Cancer
Experimental: as §1

PC-3 = conditions: Homo sapiens; PC-3, Prostate Cancer
Experimental: as §1

K-562 = conditions: Homo sapiens, K562; K-562, Leukemia
Experimental: as §1

SK-MEL-28 = conditions: Homo sapiens; SK-MEL-28, Melanoma
Experimental: as §1

IGROV1 = conditions: Homo sapiens, IGROV-1; IGROV1, Ovarian Cancer
Experimental: as §1

MDA-MB-435 = conditions: Homo sapiens
Experimental: as §1

SK-OV-3 = conditions: Homo sapiens; SK-OV-3, Ovarian Cancer
Experimental: as §1

OVCAR-3 = conditions: Homo sapiens; OVCAR-3, Ovarian Cancer
Experimental: as §1

UO-31 = conditions: Homo sapiens; UO-31, Renal Cancer
Experimental: as §1

SF-295 = conditions: Homo sapiens; SF-295, CNS Cancer
Experimental: as §1

MDA-MB-231/ATCC = conditions: Homo sapiens, Breast Cancer
Experimental: as §1

## O=C1NCc2ccc3c(-c4cccc(Cl)c4)c[nH]c3c21 [8c, 3-(3-Chlorophenyl)-6,7-dihydropyrrolo[3,4-g]indol-8(1H)-one]
NCI-H226
  GI50: 28800 nM
M14
  GI50: 132 nM
OVCAR-5
  GI50: 1250 nM
A498
  GI50: 166 nM
U251
  GI50: 263 nM
SF-539
  GI50: 166 nM
NCI/ADR-RES
  GI50: 178 nM
SW-620
  GI50: 209 nM
DU-145
  GI50: 316 nM
HCT-116
  GI50: 191 nM
T-47D
  GI50: 309 nM
BT-549
  GI50: 204 nM
COLO 205
  GI50: 209 nM
HCT-15
  GI50: 178 nM
HCC-2998
  GI50: 912 nM
HT29
  GI50: 174 nM
SR
  GI50: 151 nM
SNB-75
  GI50: 151 nM
MCF7
  GI50: 174 nM
SF-268
  GI50: 437 nM
KM12
  GI50: 209 nM
NCI-H460
  GI50: 209 nM
RPMI-8226
  GI50: 288 nM
RXF 393
  GI50: 457 nM
SK-MEL-2
  GI50: 316 nM
MDA-MB-468
  GI50: 234 nM
PC-3
  GI50: 339 nM
K-562
  GI50: 162 nM
SK-MEL-28
  GI50: 692 nM
IGROV1
  GI50: 427 nM
MDA-MB-435; MDA-MB-435, MDA-MB-435, Melanoma
  GI50: 72.4 nM
MDA-MB-435; MDA-MB-435, MDA-MB-435, as quoted in text
  GI50: 72 nM
SK-OV-3
  GI50: 275 nM
OVCAR-3
  GI50: 191 nM
UO-31
  GI50: 832 nM
SF-295
  GI50: 224 nM
MDA-MB-231/ATCC
  GI50: 1380 nM
